The values that follow come from patent US5968940A, “Retinoids and methods of use of same” (priority 1996, dated 1999).

In data set [1] the test system is Salmonella typhimurium strain TA100. Put plainly: Anti-mutagenicity (Ames), TA100. Format: cell-based. The note with it: MMS mutagen alone, 0.5 μl/plate. Here is the method: (§1) An antimutagenicity assay was conducted according to the method developed by Ames et al. using Salmonella typhimurium strains TA 102 and TA 100 and mammalian microsomal enzymes. Beta-naphthoflavone and phenobarbital-induced rat liver supernatant (9000×g S-9 fraction) was used as the enzyme source for metabolic activation. The night before the experiment, certified bacterial solution (assessed for its biological characteristics and donated by Professor Ames) was inoculated into petri dishes. The petri dishes were then incubated for 15 hours at 37° C. From each petri dish, 0.1 ml of the bacterial solution was removed and added to sterile test tubes. To these test tubes, 0.1 ml of different concentrations of coumarin retinoids and 0.5 ml of either S-9 mixed solution or phosphate buffer were then added. The final solution for each test tube was incubated in a water bath at 37° C. for 20 minutes before adding 2 ml of agar solution. After thorough mixing, the solution was transferred into petri dishes and incubated once again at 37° C. for 48 hours. After incubation, the number of colonies in each petri dish were counted. The revertant numbers of the bacteria in control and treated groups were compared and the inhibition rate was calculated.

In data set [2] the test system is Salmonella typhimurium strain TA102. As to the kind of experiment: Anti-mutagenicity (Ames), TA102. In kind it is cell-based. The settings on record: MMS mutagen alone, 0.5 μl/plate. Here is the method: as §1
Data set [3] has as its system fetus absorption in mice. As to the kind of experiment: Effect on fetus absorption in mice. Format: in vivo. Here is the method:
(§2) Female mice were examined by vaginal smear the morning after being caged with male mice, and if sperm or a vaginal plug was discovered, then the mice were determined to be pregnant. The retinoids were administered at the dosage indicated starting on the seventh day of pregnancy and continued once a day for the next ten days. On the 20th day after the female mice were determined to be pregnant, they were sacrificed by cervical dislocation. Both sides of the uterus were checked and the number of living embryos, dead embryos, and absorbed embryos were counted. The living embryos were further examined for bone abnormalities.

Data set [4] concerns bone abnormalities in mouse fetus. Put plainly: Bone abnormalities in mouse fetus. Format: in vivo. The settings on record: 101 mg/kg (so in the source). The protocol: as §2
After the embryos became transparent, they were dissected and their skeletons were checked by observation under a microscope.

For data set [5], the system named is human acute myeloid leukemia (AML), neuroblastoma, teratocarcinoma, melanoma, and rat rhabdomyosarcoma cells. The settings on record: Smith et al. 1992; cited from earlier work.
[6] abbreviates: 10 mg/kg once a day from day 7 of pregnancy.

Consider `COS(C)(=O)=O` [MMS], for which the “his+ -revertants/per plate, TA100” value in data set [1] turned out to be 1083.7 ± 99.3 revertants/per plate. The “his+ -revertants/per plate, TA102” value in data set [2] is 1760 ± 288.4 revertants/per plate.

In the case of `CC1=C(/C=C/C(C)=C/C=C/C(C)=C/C(=O)O)C(C)(C)CCC1` [All Trans RA, all-trans-retinoic acid, reference compound], in data set [3] (setting [6]), the “Fetus Absorption (%)” value amounted to 73.7% and the “Fetus Absorption, absorbed number/implanted number” value is listed as 73/99. Further, in data set [3] (15 mg/kg, implanted number 186, 15 pregnant mice), the “Absorbed Number” value is reported as 111. Further, in data set [4], the “Delayed Calcification, Occipital delay/fetus number” value is on record as 6/16 and the “Delayed Calcification, Sternum delay/fetus number” value was 16/16. Also, in data set [5], the “induction of cell differentiation” value is listed as “induces cell differentiation”.
